Assay [1] deals with β-catenin. Put plainly: IHC analysis on ex vivo tibia tissues. The assay is classed as cell-based, mice. Conditions: ex vivo tibiae treated with the drug (FIG. 2C). As for the experimental part:
(§1) The tibiae were separated from 15.5-embryonic-day-old C57BL/6 mice, and were incubated in a 24-well tissue culture dish for 7 days. The medium used was prepared by adding 10% FBS, 1 mM beta-polyglycerol disodium phosphate, 50 ng/ml ascorbic acid, 0.3 mg/ml L-glutamine, 0.2% BSA, 100 U/ml penicillin, and 100 μg/ml streptomycin to a minimal essential medium (α-MEM, Gibco). Then, the tibiae were separated from the mice. After being treated in the medium for 24 hours, the tibia was treated with a drug. The medium and the drug were changed every two days. The tibia length was measured before and after treatment with the drug. The tibial tissue, on which drug treatment was completed, was rinsed with PBS and then fixed using 4% formaldehyde.
(§2) The tibiae that underwent a dewaxing process were dehydrated. After paraffin blocks were formed, the tissues were sectioned at 4-μm thickness. The sectioned tissues were rehydrated, and then stained using immunofluorescence.
(§3) Indirubin-3′-oxime, a GSKβ inhibitor, is already known to increase the stability of β-catenin.

In assay [2] the test system is growth plate. The experiment in a line: growth plate activity in 7-week-old mice treated for 2 weeks. To be noted: treated 2 weeks. The class given is in vivo, C57BL/6 mice. The method, then:
(§4) Two and six-week-old C57BL/6 mice, purchased from KOATECH (Gyeonggi-do, South Korea), were cared for in accordance with the guidelines established by the Institutional Animal Care and Use Committee at Yonsei University. The mice were divided into a control group and an experimental group, and were adapted to the environment for 1 week. Afterwards, they were treated every day for 2 weeks with a solution containing 20% dimethyl […] and 30% ethanol, or with indirubin-3′-oxime (0.05 mg/kg, 0.1 mg/kg, and 0.5 mg/kg), via intraperitoneal injection. Two weeks later, the tibiae were separated from mice, and then the muscles were separated and removed, after which the bones were fixed using 4% formaldehyde. The bones were treated for 2 weeks with a 10% EDTA solution for the decalcification process. The EDTA solution was changed every two days.
(§5) The tissue-cultured embryo tibiae and the animal-tested tibiae were dewaxed in xylene, and were rehydrated in a stepwise-diluted ethanol solution. The tibial tissue, which was separated from 15.5-embryonic-day-old ICR mice and then tissue-cultured, was stained using the safranin staining procedure. Staining was carried out for 25 min in a 0.02% fast green solution, and after brief dipping in acetic acid, was again carried out for 7 min in a 0.1% safranin solution. Meanwhile, the tibial tissue that was animal-tested and decalcified in EDTA was stained via the hematoxylin-eosin staining procedure. The tissue was stained in a hematoxylin solution for 10 min and then rinsed in running water for 10 min. After being briefly dipped in a solution comprising 0.1% hydrochloric acid and 70% ethanol, the tissue was stained for 30 sec in an eosin solution. The stained tibial tissues again underwent a dehydration process in the stepwise-diluted ethanol solution and were dewaxed in xylene.
The tibiae that underwent a dewaxing process were dehydrated. After paraffin blocks were formed, the tissues were sectioned at 4-μm thickness. The sectioned tissues were rehydrated, and then stained using immunofluorescence. […]

The subject of assay [3] is ex vivo tibia. Put plainly: ex vivo tibia culture, tibia length and safranin staining. The assay is classed as cell-based, C57BL/6 mice. To be noted: 1 μM and 5 μM. The method, then:
as §1, with “formaldehyde. The tissue-cultured embryo tibiae and the animal-tested tibiae were dewaxed in xylene, and were rehydrated in a stepwise-diluted ethanol solution. The tibial tissue, which was separated from 15.5-embryonic-day-old ICR mice and then tissue-cultured, was stained using the safranin staining procedure. Staining was carried out for 25 min in a 0.02% fast green solution, and after brief dipping in acetic acid, was again carried out for 7 min in a 0.1% safranin solution. Meanwhile, the tibial tissue that was animal-tested and decalcified in EDTA was stained via the hematoxylin-eosin staining procedure. […]” for “formaldehyde.”

Assay [4] concerns tibia. Put plainly: tibia and growth plate length in mice dosed during a period of active growth. The assay is classed as in vivo, C57BL/6 mice. As for the experimental part: as §4, §5, §2
To understand whether indirubin-3′-oxime can actually produce an increase in bone length in mice, indirubin-3′-oxime was administered during a period of active growth, and its effect was examined (FIG. 4A). First of all, the effect on the activity of the growth plate in the middle of a period of growth was examined using the hematoxylin-eosin staining procedure (FIG. 4B).

For assay [5], the system named is GSKβ. The experiment in a line: Western blot in RCS cells, inactive GSKβ. The class given is cell-based, Rat. To be noted: 24 hours treatment (FIG. 2A). The method, then: (§6) Rat chondrosarcoma (RCS) cells were cultured in a Dulbecco's modified Eagle's medium (DMEM; Gibco, Grand Island, N.Y.), supplemented with 10% fetal bovine serum (FBS) and penicillin/streptomycin.
(§7) For Western blot analysis, cells were treated with indirubin-3′-oxime for 24 hours, cultured and reached to 70% confluency and then were harvested. After the harvested samples underwent cytolysis, the proteins were quantified, which was followed by electrophoresis using 10% or 12% SDA-PAGE gel. Afterwards, immunoblot was conducted using antibodies.
as §3

In assay [6] the test system is β-catenin. Put plainly: ICC analysis (immunocytochemistry), β-catenin translocation into the nucleus. Conditions: RCS cells, 24 hours treatment (FIG. 2B). The assay is classed as cell-based, Rat. The method, then:
as §6
2.5×10^4 cells were adhered to a cover glass placed in a 12-well plate. Once securely attached, cells were treated with indirubin-3′-oxime for 24 hours, and then were rinsed with a phosphoric acid buffer solution. After adding 4% paraformaldehyde, cells were fixed at room temperature for 20 min. Then, proteins expressed in the cells were observed through cell membrane permeation, blocking, and immunofluorescent staining processes.
as §3

Assay [7] concerns β-catenin. Put plainly: Western blot in RCS cells, β-catenin. The assay is classed as cell-based, Rat. To be noted: 24 hours treatment (FIG. 2A). As for the experimental part:
as §6, §7, §3
On the technique in general: In western blotting, separated proteins are transferred to a membrane and probed.

The mark [8] stands for this setting: growth plate at 9 weeks (FIG. 3C).

“Also recorded” adds a separate entry of the source.

In the case of `O=C1Nc2ccccc2/C1=C1/Nc2ccccc2/C1=N\O` [indirubin-3′-oxime], the “amount of β-catenin in the hypertrophic chondrocyte zone (IHC)” value in assay [1] is recorded as “amount of β-catenin markedly increased in the hypertrophic chondrocyte zone”. In assay [2] (setting [8]), the “amount of Ki67, cell proliferation marker (IHC)” value is on record as “increase in the amount of Ki67” and the “stability of β-catenin in growth plate (IHC)” value was “increase in the stability of β-catenin”. In addition, the “activity of the growth plate (hematoxylin-eosin staining)” value in assay [2] (intraperitoneal, compared with control at 9 weeks (FIG. 3B)) was “inhibits growth plate senescence; also recorded: activity of the growth plate was still maintained”. The “length of resting zone, proliferating zone and hypertrophic chondrocyte zone (safranin staining)” value in assay [3] (6 days, ex vivo tibia (FIGS. 1C, 1D)) was “increase in the total length (the resting zone, the proliferating zone, and the hypertrophic chondrocyte zone) that depended on the concentration”. Moreover, the “increase in the total length of the tibia” value in assay [3] (tibiae treated for 6 days, ex vivo culture (FIGS. 1A, 1B)) is listed as “dose-dependently induces longitudinal bone growth; also recorded: increase in the total length depended on the concentration change”. Further, in assay [4] (13-week-old mice (FIGS. 4D, 4E)), the “persistence of the bone length effect after growth has ceased” value is “lasts even in 13-week-old mice; also recorded: found to last even in 13-week-old mice”. Further, in assay [4] (mice dosed during period of active growth (FIG. 4B)), the “cell proliferation marker PCNA” value is recorded as “confirmed through PCNA”. In assay [4] (mice dosed during period of active growth (FIG. 4D)), the “total bone length of the tibia” value is listed as “increase in the total bone length of the tibia”. The “length of each zone and total length of the growth plate” value in assay [4] (mice dosed during period of active growth, hematoxylin-eosin staining (FIGS. 4B, 4C)) is “increases not only the length of each zone but also the total length of the growth plate; also recorded: increase not only in the length of each zone but also in the total length of the growth plate”. Besides, the “amount of inactive GSKβ (Western blot)” value in assay [5] was “increasing the amount of inactive GSK3; also recorded: increasing the amount of inactive GSKβ”. Moreover, in assay [6], the “amount of β-catenin translocated into the nucleus (ICC)” value is “increase in the amount of β-catenin that was translocated into the nucleus”. Further, in assay [7], the “stability of β-catenin (Western blot)” value is reported as “increased the stability of β-catenin”.

Values taken from patent US10149833B2, “Small molecule, indirubin-3-oxime, for prevention and treatment of bone disease” (Industry-Academic Cooperation Foundation, Yonsei University, priority 2013, dated 2018).
